Results on 6 molecules are retold here after patent US6635459B1, “Nucleotide sequences encoding pinoresinol/lariciresinol reductase proteins and their methods of use” (Washington State University Research Foundation, priority 1996, dated 2003).

The test system of data set [1] is HIV. The settings on record: cited from earlier work.
The subject of data set [2] is E-coniferyl alcohol. The data set can be described thus: E-coniferyl alcohol coupling assay (oxidant with/without dirigent protein). Type of data set: biochemical, Forsythia intermedia. Particulars: 6 hour assay. Here is the method:
E-coniferyl alcohol coupling assay. E-[9-^3H]Coniferyl alcohol (4 μmol ml^−1, 29.3 kBq) was incubated with a 120-kD laccase (previously purified from Forsythia intermedia stem tissue) over a […], in the presence and absence of the dirigent protein, as follows. Each assay consisted of E-[9-^3H]coniferyl alcohol (4 μmol ml^−1, 29.3 kBq, 7.3 MBq mole liter^−1; or 2 μmol ml^−1, 14.7 kBq with fraction III), the 78-kD dirigent protein, an oxidase or oxidant, or both [final concentrations: 770 pmol ml^−1 dirigent protein; 10.7 pmol protein ml^−1 Forsythia laccase; 12 μg protein ml^−1 fraction III; 0.5 μmol ml^−1 FMN; 0.5 μmol ml^−1 FAD; 1 and 10 μmol ml^−1 ammonium peroxydisulfate] in buffer (0.1 M MES-HEPES-sodium acetate, pH 5.0) to a total volume of 250 μl. The enzymatic reaction was initiated by addition of E-[9-^3H]coniferyl alcohol. Controls were performed in the presence of buffer alone.
After one hour incubation at 30° C. while shaking, the assay mixture was extracted with ethyl acetate (EtOAc, 500 μl) containing (±)-pinoresinols (7.5 μg), (±)-dehydrodiconiferyl alcohols (3.5 μg) and erythro/threo (±)-guaiacylglycerol 8-O-4′-coniferyl alcohol ethers (7.5 μg) as radiochemical carriers and ferulic acid (15.0 μg) as an internal standard. After centrifugation (13,800 g, 5 min), the EtOAc soluble components were removed and the extraction procedure repeated with EtOAc (500 μl). The EtOAc soluble components from each assay were combined, the solutions evaporated to dryness in vacuo, redissolved in methanol-water solution (1:1; 100 μl) with an aliquot (50 μl) thereof subjected to reversed-phase column chromatography (Waters, Nova-Pak C18, 150 mm by 3.8 mm). The elution conditions were as follows: acetonitrile/3% acetic acid in H2O (5:95) from 0 to 5 min, then linear gradients to ratios of 10:90 between 5 and 20 min, then to 20:80 between 20 and 45 min and finally to 50:50 between 45 and 60 min, at a flow rate of 8.8 ml min^−1 cm^−2.
Fractions corresponding to E-coniferyl alcohol, erythro/threo (±)-guaiacylglycerol 8-O-4′-coniferyl alcohol ethers, (±)-dehydrodiconiferyl alcohols and (±)-pinoresinols were individually collected, aliquots removed for liquid scintillation counting, and the remainder freeze-dried. Pinoresinol-containing fractions were redissolved in methanol (100 μl) and subjected to chiral column chromatography (Daicel, Chiralcel OD, 50 mm by 4.6 mm) with a solution of hexanes and ethanol (1:1) as the mobile phase (flow rate 3 ml min^−1 cm^−2), whereas dehydrodiconiferyl alcohol fractions were subjected to Chiralcel OF (250 mm by 4.6 mm) column chromatography eluted with a solution of hexanes and isopropanol (9:1) as the mobile phase (flow rate 2.4 ml min^−1 cm^−2), the radioactivity of the eluent being measured with a flow-through detector (Radiomatic, Model A120).
Ammonium peroxydisulfate readily undergoes homolytic cleavage (A. Usaitis, R. Makuska, Polymer 35:4896 (1994)) and is routinely used as an one-electron oxidant in acrylamide polymerization. Ammonium peroxydisulfate was first incubated with E-[9-^3H]coniferyl alcohol (4 μmol ml^−1, 29.3 kBq) for 6 hours using the E-coniferyl alcohol coupling assay procedure described above.

For data set [3], the system named is E-sinapyl alcohol. The data set can be described thus: E-sinapyl alcohol coupling assay (oxidant with/without dirigent protein). Type of data set: biochemical, Forsythia intermedia. Particulars: FMN 0.5 μmol ml^−1 or ammonium peroxydisulfate 10 μmol ml^−1, 6 hour assay. Here is the method: Investigation of Substrate-Specific Stereoselectivity. The coupling stereoselectivity was substrate specific. Neither E-p-[9-^3H]coumaryl (4 μmol ml^−1, 44.5 kBq) or E-[8-^14C]sinapyl alcohols (4 μmol ml^−1, 8.3 kBq), which differ from E-coniferyl alcohol only by a methoxyl group substituent on the aromatic ring, yielded stereoselective products when incubated for 6 hours with FMN and ammonium peroxydisulfate respectively, in the presence and absence of the dirigent protein. Incubations were carried out as described above with the following modifications: E-p-[9-^3H]coumaryl (4 μmol ml^−1, 44.5 kBq) or E-[8-^14C]sinapyl alcohols (4 μmol ml^−1, 8.3 kBq) were used as substrates and, after 6 hour incubation at 30° C., the reaction mixture was extracted with EtOAc but without addition of radiochemical carriers.

In data set [4] the test system is E-coniferyl alcohol. The data set can be described thus: Kinetic characterization of conversion of E-coniferyl alcohol to (+)-pinoresinol with dirigent protein and oxidase/oxidant. The settings on record: (+)-pinoresinol formation from E-coniferyl alcohol, dirigent protein 770 pmol ml^−1 alone or with Fraction III 12 μg protein ml^−1, laccase 2.07 pmol ml^−1, FMN 0.5 μmol ml^−1. The data set is classed as biochemical, Forsythia intermedia. Here is the method:
Assays were carried out as described in Example 3 by incubating a series of E-[9-^3H]coniferyl alcohol concentrations (between 8.00 and 0.13 μmol ml^−1, 7.3 MBq mole literl) with dirigent protein (770 pmol ml^−1) alone and in presence of Forsythia laccase (2.1 pmol ml^−1), fraction III (12 μg protein ml^−1), or FMN (0.5 μmol ml^−1). Assays with dirigent protein, in presence or absence of FMN, were incubated at 30° C. for 1 hour, whereas assays with Forsythia laccase or fraction III in presence or absence of dirigent protein were incubated at 30° C. for 15 min. If free-radical capture by the dirigent protein is the operative mechanism, the Michaelis-Menten parameters obtained will only represent formal rather than true values, because the highest free-energy intermediate state during the conversion of E-coniferyl alcohol into (+)-pinoresinol is still unknown and the relation between the concentration of substrate and that of the corresponding intermediate free-radical in open solution has not been delineated.
Bearing these qualifications in mind, we estimated formal Km and Vmax values for the dirigent protein preparation.

Substrate in data set [5]: COc1cc(C[C@H]2CO[C@H](c3ccc(O)c(OC)c3)[C@H]2CO)ccc1O
The data set is described as follows: Initial velocity studies, reductase 35 kDa isoform. Particulars: other: 35 kDa form of the enzyme, NADPH 80 μM, pH 7.4, 30° C. Type of data set: biochemical, Forsythia intermedia. The protocol:
Kinetic Parameters. […] The initial velocity studies were carried out individually utilizing the two isoforms of the enzyme, and individually employing both (+)-pinoresinol and (+)-lariciresinol as substrates. Initial velocity studies were performed in triplicate experiments, using 50 mM Bis-Tris Propane buffer, pH 7.4 containing 5 mM dithiothreitol, pure enzyme (after MonoQ anion-exchange chromatography), ten different substrate concentrations (between 8.8 and 160 μM) at a constant NADPH concentration (80 μM). Incubations were carried out at 30° C. for 10 min (within the linear kinetic range). Kinetic parameters were determined from Lineweaver-Burk plots.

Substrate in data set [6]: COc1cc(C[C@H]2CO[C@H](c3ccc(O)c(OC)c3)[C@H]2CO)ccc1O
The data set is described as follows: purified protein, by the assay type. Particulars: other: 36 kDa form of the enzyme, NADPH 80 μM, pH 7.4, 30° C.

[7] abbreviates: ammonium peroxydisulfate 1 μmol ml^−1, dirigent protein absent.
Setting [8] is: ammonium peroxydisulfate 1 μmol ml^−1, dirigent protein present (770 pmol ml^−1).
The mark [9] stands for this setting: ammonium peroxydisulfate 10 μmol ml^−1, dirigent protein absent.
Setting [10] is: ammonium peroxydisulfate 10 μmol ml^−1, dirigent protein present (770 pmol ml^−1).
Setting [11] is: dirigent protein present (770 pmol ml^−1).

Consider `COc1cc(C[C@H]2C(=O)OC[C@@H]2Cc2ccc(OC)c(OC)c2)ccc1O` [(−)-arctigenin], for which, in data set [1], the “effectiveness against HIV (reverse transcriptase inhibitory activities)” value was “effective against HIV”.

On to `N.N.O=S(=O)(O)OOS(=O)(=O)O` [Ammonium peroxydisulfate], for which, in data set [2] (setting [7]), the “(+)-Pinoresinol” value is 0 nmol/mL, the “(±)-Dehydro-diconiferyl alcohols” value is 35 ± 2 nmol/mL, the “(±)-Guaiacyl-glycerol 8-O-4′-coniferyl alcohol ethers” value was determined as 10 ± 1 nmol/mL and the “(±)-Pinoresinols” value stood at 16 ± 0 nmol/mL. Besides, in data set [2] (setting [7]), the “E-Coniferyl alcohol in dimer equivalents depleted” value (“E-Coniferyl alcohol” for short) is 200 ± 4 nmol/mL and the Total dimers amounted to 61 ± 3 nmol/mL. Further, in data set [2] (setting [8]), the “(+)-Pinoresinol” value was found to be 130 ± 10 nmol/mL, the “(±)-Dehydro-diconiferyl alcohols” value stood at 13 ± 1 nmol/mL, the “(±)-Guaiacyl-glycerol 8-O-4′-coniferyl alcohol ethers” value is 6 ± 0 nmol/mL and the “(±)-Pinoresinols” value amounted to 0 nmol/mL. Besides, in data set [2] (setting [8]), the “E-Coniferyl alcohol” value was 250 ± 55 nmol/mL and the Total dimers turned out to be 149 ± 11 nmol/mL. In data set [2] (setting [9]), the “(+)-Pinoresinol” value turned out to be 0 nmol/mL, the “(±)-Dehydro-diconiferyl alcohols” value amounted to 250 ± 10 nmol/mL, the “(±)-Guaiacyl-glycerol 8-O-4′-coniferyl alcohol ethers” value came to 90 ± 4 nmol/mL and the “(±)-Pinoresinols” value came to 135 ± 4 nmol/mL. In data set [2] (setting [9]), the “E-Coniferyl alcohol” value stood at 860 ± 30 nmol/mL and the Total dimers was 475 ± 17 nmol/mL. For the same molecule, in data set [2] (setting [10]), the “(+)-Pinoresinol” value came out at 450 ± 10 nmol/mL, the “(±)-Dehydro-diconiferyl alcohols” value amounted to 90 ± 3 nmol/mL, the “(±)-Guaiacyl-glycerol 8-O-4′-coniferyl alcohol ethers” value turned out to be 30 ± 1 nmol/mL and the “(±)-Pinoresinols” value was determined as 0 nmol/mL. In data set [2] (setting [10]), the “E-Coniferyl alcohol” value was 1030 ± 25 nmol/mL and the Total dimers was 570 ± 14 nmol/mL. Further, in data set [3] (dirigent protein absent), the “E-Sinapyl alcohol in dimer equivalents depleted” value (“E-Sinapyl alcohol” for short) was found to be 1400 ± 120 nmol/mL and the “Racemic (±)-syringaresinols” value came to 1020 ± 40 nmol/mL. Also, in data set [3] (setting [11]), the “E-Sinapyl alcohol” value amounted to 1520 ± 10 nmol/mL and the “Racemic (±)-syringaresinols” value worked out at 1060 ± 30 nmol/mL.

One may read the Km as the concentration of substrate that gives half-maximal velocity. For `Cc1cc2nc3c(=O)[nH]c(=O)nc-3n(C[C@H](O)[C@H](O)[C@H](O)COP(=O)(O)O)c2cc1C` [FMN, flavin mononucleotide], in data set [4], the Vmax is on record as 0.024 ± 0.001 mol s^−1 mol^−1 dirigent protein. Besides, in data set [4] (read-out: Formal Km), the Km was 100 ± 10 µM. Moreover, in data set [3] (dirigent protein absent), the “E-Sinapyl alcohol” value was determined as 570 ± 100 nmol/mL and the “Racemic (±)-syringaresinols” value turned out to be 290 ± 40 nmol/mL. For the same molecule, in data set [3] (setting [11]), the “E-Sinapyl alcohol” value is 610 ± 110 nmol/mL and the “Racemic (±)-syringaresinols” value was determined as 340 ± 40 nmol/mL.

In the case of `CC(Cc1ccc(O)c(O)c1)C(C)Cc1ccc(O)c(O)c1` (stereo not shown) [nordihydroguaiaretic acid], in data set [1], the “effectiveness against HIV (reverse transcriptase inhibitory activities)” value was “effective against HIV”.

B1: 35 kDa form of (+)-pinoresinol/(+)-lariciresinol reductase (Forsythia x intermedia) (protein)
chain: GKSKVLIIGGTGYLGRRLVKASLAQGHETYILHRPEIGVDIDKVEMLISFKMQGAHLVSGSFKDFNSLVEAVKLVDVVISAISGVHIRSHQILLQLKLVEAIKEAGNVKRFLPSEFGMDPAKFMDTAMEPGKVTLDEKMVVRKAIEKAGIPFTYVSANCFAGYFLGGLCQFGKILPSRDFVIIHGDGNKKAIYNNEDDIATYAIKTINDPRTLNKTIYISPPKNILSQREVVQTWEKLIGKELQKITLSKEDFLASVKELEYAQQVGLSHYHDVNYQGCLTSFEIGDEEEASKLYPEVKYTSVEEYLKRYV
notes: pure enzyme (after MonoQ anion-exchange chromatography); from tissue; host or cells: Forsythia intermedia stems
For B1, in data set [5], the Km was found to be 121 ± 5.0 µM and the Vmax is 25.2±0.7 μmol h^−1 mg^−1 of protein.

B2: 36 kDa form of (+)-pinoresinol/(+)-lariciresinol reductase (Forsythia x intermedia) (protein)
chain: GKSKVLIIGGTGYLGRRLVKASLAQGHETYILHRPEIGVDIDKVEMLISFKMQGAHLVSGSFKDFNSLVEAVKLVDVVISAISGVHIRSHQILLQLKLVEAIKEAGNVKRFLPSEFGMDPAKFMDTAMEPGKVTLDEKMVVRKAIEKAGIPFTYVSANCFAGYFLGGLCQFGKILPSRDFVIIHGDGNKKAIYNNEDDIATYAIKTINDPRTLNKTIYISPPKNILSQREVVQTWEKLIGKELQKITLSKEDFLASVKELEYAQQVGLSHYHDVNYQGCLTSFEIGDEEEASKLYPEVKYTSVEEYLKRYV
In the case of B2, in data set [6], the Km was found to be 123 ± 6.0 µM and the Vmax was 29.9±0.7 μmol h^−1 mg^−1 of protein.
